In PubChem BioAssay (NCI):
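Values below derive from 48-hour exposures of cells grown in 96-well plates, with endpoints linearly interpolated between the two concentrations bracketing the appropriate inhibition level. Here, GI50 denotes the concentration required for 50% inhibition of growth. TGI denotes the concentration required for complete inhibition of growth.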

How the values were obtained:
Experiment in all cases: NCI anticancer screen, dose series, 48 h
786-0 renal = test system: 786-0 renal
A498 renal = test system: A498 renal
A549 NSCLC = test system: A549 NSCLC
ACHN renal = test system: ACHN renal
BT-549 breast = test system: BT-549 breast
CAKI-1 renal = test system: CAKI-1 renal
COLO 205 colon = test system: COLO 205 colon
DU-145 prostate = test system: DU-145 prostate
EKVX NSCLC = test system: EKVX NSCLC
HCC-2998 colon = test system: HCC-2998 colon
HCT-116 colon = test system: HCT-116 colon
HCT-15 colon = test system: HCT-15 colon
HL-60(TB) leukemia = test system: HL-60(TB) leukemia
HOP-62 NSCLC = test system: HOP-62 NSCLC
HOP-92 NSCLC = test system: HOP-92 NSCLC
HS 578T breast = test system: HS 578T breast
HT29 colon = test system: HT29 colon
IGROV1 ovarian = test system: IGROV1 ovarian
K-562 leukemia = test system: K-562 leukemia
KM12 colon = test system: KM12 colon
LOX IMVI melanoma = test system: LOX IMVI melanoma
M14 melanoma = test system: M14 melanoma
MALME-3M melanoma = test system: MALME-3M melanoma
MCF7 breast = test system: MCF7 breast
MDA-MB-231 breast = test system: MDA-MB-231 breast
MDA-MB-435 = test system: MDA-MB-435
MOLT-4 leukemia = test system: MOLT-4 leukemia
NCI-H226 lung = test system: NCI-H226 lung
NCI-H23 lung = test system: NCI-H23 lung
NCI-H460 lung = test system: NCI-H460 lung
NCI-H522 lung = test system: NCI-H522 lung
NCI/ADR-RES ovarian = test system: NCI/ADR-RES ovarian
OVCAR-3 ovarian = test system: OVCAR-3 ovarian
OVCAR-4 ovarian = test system: OVCAR-4 ovarian
OVCAR-5 ovarian = test system: OVCAR-5 ovarian
OVCAR-8 ovarian = test system: OVCAR-8 ovarian
PC-3 prostate = test system: PC-3 prostate
RPMI-8226 leukemia = test system: RPMI-8226 leukemia
RXF 393 renal = test system: RXF 393 renal
SF-268 CNS = test system: SF-268 CNS
SF-295 CNS = test system: SF-295 CNS
SF-539 CNS = test system: SF-539 CNS
SK-MEL-2 melanoma = test system: SK-MEL-2 melanoma
SK-MEL-28 melanoma = test system: SK-MEL-28 melanoma
SK-MEL-5 melanoma = test system: SK-MEL-5 melanoma
SK-OV-3 ovarian = test system: SK-OV-3 ovarian
SN12C renal = test system: SN12C renal
SNB-19 CNS = test system: SNB-19 CNS
SNB-75 CNS = test system: SNB-75 CNS
SR leukemia = test system: SR leukemia
SW-620 colon = test system: SW-620 colon
T-47D breast = test system: T-47D breast
TK-10 renal = test system: TK-10 renal
U251 CNS = test system: U251 CNS
UACC-257 melanoma = test system: UACC-257 melanoma
UACC-62 melanoma = test system: UACC-62 melanoma
UO-31 renal = test system: UO-31 renal
CCRF-CEM leukemia = test system: CCRF-CEM leukemia

CC(=O)Oc1ccc(OC(C)=O)c2ccccc12
GI50 (786-0 renal): 16.6 µM
TGI (786-0 renal): 30.5 µM
GI50 (A498 renal): 19.2 µM
TGI (A498 renal): 48.4 µM
GI50 (A549 NSCLC): 34.9 µM
TGI (A549 NSCLC): > 100 µM
GI50 (ACHN renal): 6.37 µM
TGI (ACHN renal): 19.2 µM
GI50 (BT-549 breast): 13.5 µM
TGI (BT-549 breast): 26.6 µM
GI50 (CAKI-1 renal): 6.79 µM
TGI (CAKI-1 renal): 23.3 µM
GI50 (COLO 205 colon): 15 µM
TGI (COLO 205 colon): 28.2 µM
GI50 (DU-145 prostate): 15.9 µM
TGI (DU-145 prostate): 29.6 µM
GI50 (EKVX NSCLC): 10.4 µM
TGI (EKVX NSCLC): 24.7 µM
GI50 (HCC-2998 colon): 17.5 µM
TGI (HCC-2998 colon): 31.7 µM
GI50 (HCT-116 colon): 3.59 µM
TGI (HCT-116 colon): 12.9 µM
GI50 (HCT-15 colon): 14.3 µM
TGI (HCT-15 colon): 34.5 µM
GI50 (HL-60(TB) leukemia): 2.72 µM
TGI (HL-60(TB) leukemia): 7.87 µM
GI50 (HOP-62 NSCLC): 12.6 µM
TGI (HOP-62 NSCLC): 25.3 µM
GI50 (HOP-92 NSCLC): 1.49 µM
TGI (HOP-92 NSCLC): 3.05 µM
GI50 (HS 578T breast): 13.2 µM
TGI (HS 578T breast): 67.1 µM
GI50 (HT29 colon): 34.6 µM
TGI (HT29 colon): > 100 µM
GI50 (IGROV1 ovarian): 3.2 µM
TGI (IGROV1 ovarian): 11.5 µM
GI50 (K-562 leukemia): 3.39 µM
TGI (K-562 leukemia): 22 µM
GI50 (KM12 colon): 10.9 µM
TGI (KM12 colon): 23.4 µM
GI50 (LOX IMVI melanoma): 14.8 µM
TGI (LOX IMVI melanoma): 30.7 µM
GI50 (M14 melanoma): 16.1 µM
TGI (M14 melanoma): 30.4 µM
GI50 (MALME-3M melanoma): 14 µM
TGI (MALME-3M melanoma): 33 µM
GI50 (MCF7 breast): 7.98 µM
TGI (MCF7 breast): 27.6 µM
GI50 (MDA-MB-231 breast): 1.17 µM
TGI (MDA-MB-231 breast): 2.48 µM
GI50 (MDA-MB-435): 3.86 µM
TGI (MDA-MB-435): 15 µM
GI50 (MOLT-4 leukemia): 2.46 µM
TGI (MOLT-4 leukemia): 8.38 µM
GI50 (NCI-H226 lung): 14.4 µM
TGI (NCI-H226 lung): 31.3 µM
GI50 (NCI-H23 lung): 12.7 µM
TGI (NCI-H23 lung): 27.5 µM
GI50 (NCI-H460 lung): 29.1 µM
TGI (NCI-H460 lung): > 100 µM
GI50 (NCI-H522 lung): 2.04 µM
TGI (NCI-H522 lung): 5.41 µM
GI50 (NCI/ADR-RES ovarian): 3.27 µM
TGI (NCI/ADR-RES ovarian): 15.2 µM
GI50 (OVCAR-3 ovarian): 3.55 µM
TGI (OVCAR-3 ovarian): 12.9 µM
GI50 (OVCAR-4 ovarian): 1.71 µM
TGI (OVCAR-4 ovarian): 3.1 µM
GI50 (OVCAR-5 ovarian): 17.5 µM
TGI (OVCAR-5 ovarian): 31.7 µM
GI50 (OVCAR-8 ovarian): 6.66 µM
TGI (OVCAR-8 ovarian): 22.7 µM
GI50 (PC-3 prostate): 6.24 µM
TGI (PC-3 prostate): 25.6 µM
GI50 (RPMI-8226 leukemia): 3.85 µM
TGI (RPMI-8226 leukemia): 10.2 µM
GI50 (RXF 393 renal): 7.57 µM
TGI (RXF 393 renal): 20.2 µM
GI50 (SF-268 CNS): 10.5 µM
TGI (SF-268 CNS): 22.3 µM
GI50 (SF-295 CNS): 20.9 µM
TGI (SF-295 CNS): > 100 µM
GI50 (SF-539 CNS): 13.2 µM
TGI (SF-539 CNS): 26.4 µM
GI50 (SK-MEL-2 melanoma): 12.8 µM
TGI (SK-MEL-2 melanoma): 27 µM
GI50 (SK-MEL-28 melanoma): 13.3 µM
TGI (SK-MEL-28 melanoma): 26.5 µM
GI50 (SK-MEL-5 melanoma): 13.5 µM
TGI (SK-MEL-5 melanoma): 26.4 µM
GI50 (SK-OV-3 ovarian): 14.1 µM
TGI (SK-OV-3 ovarian): 27.1 µM
GI50 (SN12C renal): 14 µM
TGI (SN12C renal): 27.5 µM
GI50 (SNB-19 CNS): 30.5 µM
TGI (SNB-19 CNS): > 100 µM
GI50 (SNB-75 CNS): 14 µM
TGI (SNB-75 CNS): 27.7 µM
GI50 (SR leukemia): 3.19 µM
TGI (SR leukemia): 11.7 µM
GI50 (SW-620 colon): 13.8 µM
TGI (SW-620 colon): 33.2 µM
GI50 (T-47D breast): 1.21 µM
TGI (T-47D breast): 3.16 µM
GI50 (TK-10 renal): 17.2 µM
TGI (TK-10 renal): 31.5 µM
GI50 (U251 CNS): 13.8 µM
TGI (U251 CNS): 27.2 µM
GI50 (UACC-257 melanoma): 3.95 µM
TGI (UACC-257 melanoma): 13.8 µM
GI50 (UACC-62 melanoma): 6.94 µM
TGI (UACC-62 melanoma): 19.9 µM
GI50 (UO-31 renal): 2.14 µM
TGI (UO-31 renal): 16.1 µM

CCOC(=O)c1ccc2nc(NC(=O)COC(=O)CSc3nc(C)cc(C)n3)sc2c1
TGI (786-0 renal): > 100 µM
TGI (A498 renal): > 100 µM
TGI (A549 NSCLC): > 100 µM
TGI (ACHN renal): > 100 µM
TGI (BT-549 breast): > 100 µM
TGI (CAKI-1 renal): > 100 µM
TGI (CCRF-CEM leukemia): 15.5 µM
TGI (COLO 205 colon): > 100 µM
TGI (DU-145 prostate): > 100 µM
TGI (EKVX NSCLC): 62 µM
TGI (HCT-116 colon): > 100 µM
TGI (HCT-15 colon): > 100 µM
TGI (HL-60(TB) leukemia): 33.9 µM
TGI (HOP-62 NSCLC): 50.5 µM
TGI (HOP-92 NSCLC): > 100 µM
TGI (HS 578T breast): > 100 µM
TGI (HT29 colon): > 100 µM
TGI (IGROV1 ovarian): > 100 µM
TGI (K-562 leukemia): > 100 µM
TGI (KM12 colon): > 100 µM
TGI (LOX IMVI melanoma): > 100 µM
TGI (M14 melanoma): > 100 µM
TGI (MALME-3M melanoma): > 100 µM
TGI (MCF7 breast): > 100 µM
TGI (MDA-MB-231 breast): > 100 µM
TGI (MDA-MB-435): > 100 µM
TGI (MOLT-4 leukemia): > 100 µM
TGI (NCI-H23 lung): > 100 µM
TGI (NCI-H460 lung): > 100 µM
TGI (NCI-H522 lung): > 100 µM
TGI (NCI/ADR-RES ovarian): > 100 µM
TGI (OVCAR-3 ovarian): 91.5 µM
TGI (OVCAR-4 ovarian): > 100 µM
TGI (OVCAR-5 ovarian): 86.1 µM
TGI (OVCAR-8 ovarian): > 100 µM
TGI (PC-3 prostate): > 100 µM
TGI (RPMI-8226 leukemia): > 100 µM
TGI (RXF 393 renal): > 100 µM
TGI (SF-268 CNS): > 100 µM
TGI (SF-295 CNS): > 100 µM
TGI (SF-539 CNS): 80.6 µM
TGI (SK-MEL-2 melanoma): > 100 µM
TGI (SK-MEL-28 melanoma): > 100 µM
TGI (SK-MEL-5 melanoma): > 100 µM
TGI (SK-OV-3 ovarian): > 100 µM
TGI (SN12C renal): > 100 µM
TGI (SNB-19 CNS): > 100 µM
TGI (SNB-75 CNS): 60.4 µM
TGI (SR leukemia): > 100 µM
TGI (SW-620 colon): > 100 µM
TGI (T-47D breast): 63.6 µM
TGI (TK-10 renal): > 100 µM
TGI (U251 CNS): > 100 µM
TGI (UACC-257 melanoma): > 100 µM
TGI (UACC-62 melanoma): > 100 µM
TGI (UO-31 renal): 38.5 µM
